In the supplement of paper PMC11208160:
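Also: IS621 bridge recombinase in Escherichia coli cells against a fixed T5 target plasmid.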

Assay: recombinant UMI read abundance after kanamycin selection (control-corrected) (log10(CPM+1)); higher = more efficient recombination; extreme values may be limits of the assay; sequences stand for … in AGTGCAGAGAAAATCGGCCAGTTTTCTCTGCCTGCAGTCCGCATGCCGTGGGACCCCTTGGGTTCTAACCTGTTGCCTAGATTTATGCAGCGGACTGCCTTTCTCCCAAAGTGATAAACCGG…AGGTTGGTTTCACT; site = the 11-nt donor
How it was run: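 For the IS621 bridge recombinase, a pooled Escherichia coli screen tested donor and donor-binding-loop pairs. Cells received the pair library together with a target plasmid encoding a fixed target and T7-inducible recombinase, then went onto IPTG (0.07 mM) plus kanamycin or unselected plates in duplicate. After PCR across the donor–target junction and sequencing, recombinant UMI counts were normalized to CPM, averaged, and scaled by control-derived factors. Each value is given as log10(CPM+1).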
In the case of “TAAAGTCCATGGACCGGTTTTCCCGGTAATCCGTATTTGTT (site TAAAGTCCTTA)”, the “recombinant UMI read abundance (log10)” value is reported as 0. For “TTAGCTTCATGGACCGGTTTTCCCGGTAATCCGTATTTGTG (site TTAGCTGCTCA)”, the “recombinant UMI read abundance (log10)” value was 0.00609. In the case of “TACTATGCATGGACCGGTTTTCCCGGTAATCCGTATTTGCG (site TACTATGCTCG)”, the “recombinant UMI read abundance (log10)” value is reported as 0.64. In the case of “TTCCCTACATGGACCGGTTTTCCCGGTAATCCGTATTTGAG (site GTCCCTACTCT)”, the “recombinant UMI read abundance (log10)” value is reported as 0.0155. With “CCGTTTACATGGACCGGTTTTCCCGGTAATCCGTATTTGAT (site CCGTTTACTAA)” the “recombinant UMI read abundance (log10)” value was 0.0556. With “CCCTACACATGGACCGGTTTTCCCGGTAATCCGTATTTGCT (site CTCTACACTAG)” the “recombinant UMI read abundance (log10)” value was 0.347. With “GTGCATGCATGGACCGGTTTTCCCGGTAATCCGTATTTGGT (site CTGCATGCTAC)” the “recombinant UMI read abundance (log10)” value was 0.457. In the case of “ACTAGAACATGGACCGGTTTTCCCGGTAATCCGTATTTGAG (site ACTAGAACTGT)”, the “recombinant UMI read abundance (log10)” value is reported as 0. With “GGCAATCCATGGACCGGTTTTCCCGGTAATCCGTATTTGAT (site GGCAATCCTTT)” the “recombinant UMI read abundance (log10)” value was 0.00349. In the case of “TTAGCTTCATGGACCGGTTTTCCCGGTAATCCGTATTTGTG (site TTAGCTCCTCA)”, the “recombinant UMI read abundance (log10)” value is reported as 0.012. In the case of “TTAGATGCATGGACCGGTTTTCCCGGTAATCCGTATTTGTG (site TTAGCTGCTCA)”, the “recombinant UMI read abundance (log10)” value is reported as 0.0227. In the case of “ACTAGAACATGGACCGGTTTTCCCGGTAATCCGTATTTGAG (site ACTCGAACTCT)”, the “recombinant UMI read abundance (log10)” value is reported as 0.115. With “GGAGTCTCATGGACCGGTTTTCCCGGTAATCCGTATTTGTC (site GGAGTCTCTGA)” the “recombinant UMI read abundance (log10)” value was 2.36. In the case of “AGGATAACATGGACCGGTTTTCCCGGTAATCCGTATTTGGC (site AGGATAACTGC)”, the “recombinant UMI read abundance (log10)” value is reported as 2.73. In the case of “ACGCGTGCATGGACCGGTTTTCCCGGTAATCCGTATTTGAC (site ACGCGTGCTGT)”, the “recombinant UMI read abundance (log10)” value is reported as 2.96. For “GTGCTGGCATGGACCGGTTTTCCCGGTAATCCGTATTTGGT (site GTGCTGGCTAC)”, the “recombinant UMI read abundance (log10)” value was 0.476. In the case of “TGGCCCGCATGGACCGGTTTTCCCGGTAATCCGTATTTGGC (site TGGCCGGCTGC)”, the “recombinant UMI read abundance (log10)” value is reported as 0. In the case of “CCGAAAACATGGACCGGTTTTCCCGGTAATCCGTATTTGCT (site CCGAAAACTAG)”, the “recombinant UMI read abundance (log10)” value is reported as 0.973. With “GGCTTAGCATGGACCGGTTTTCCCGGTAATCCGTATTTGAG (site GGCTTAGCTCT)” the “recombinant UMI read abundance (log10)” value was 1.13. With “AATGTGTCATGGACCGGTTTTCCCGGTAATCCGTATTTGGC (site AATGTGTCTGT)” the “recombinant UMI read abundance (log10)” value was 1.99. For “TCACATCCATGGACCGGTTTTCCCGGTAATCCGTATTTGAC (site TCACATCCTGT)”, the “recombinant UMI read abundance (log10)” value was 0. In the case of “TATTTGGCATGGACCGGTTTTCCCGGTAATCCGTATTTGTG (site TATTTTGCTCA)”, the “recombinant UMI read abundance (log10)” value is reported as 0.0154. For “AGTAAAGCATGGACCGGTTTTCCCGGTAATCCGTATTTGCA (site AGTAAAGCTTG)”, the “recombinant UMI read abundance (log10)” value was 1.97. With “CTTGTAACATGGACCGGTTTTCCCGGTAATCCGTATTTGCA (site CTTGTAACTTG)” the “recombinant UMI read abundance (log10)” value was 0.147. For “CCCTAGACATGGACCGGTTTTCCCGGTAATCCGTATTTGCC (site CCCTAGCCTGG)”, the “recombinant UMI read abundance (log10)” value was 0. With “TAAAGACCATGGACCGGTTTTCCCGGTAATCCGTATTTGTA (site TAAAGGCCTTA)” the “recombinant UMI read abundance (log10)” value was 0.257. For “GGAGGTACATGGACCGGTTTTCCCGGTAATCCGTATTTGAC (site GTAGGTACTGT)”, the “recombinant UMI read abundance (log10)” value was 0. For “CCAAACACATGGACCGGTTTTCCCGGTAATCCGTATTTGAT (site CCAAACACTAT)”, the “recombinant UMI read abundance (log10)” value was 1.8. In the case of “GGATAGACATGGACCGGTTTTCCCGGTAATCCGTATTTGGC (site GGATAGACTGC)”, the “recombinant UMI read abundance (log10)” value is reported as 2.35. In the case of “CTCCCAACATGGACCGGTTTTCCCGGTAATCCGTATTTGAG (site CTCCCTACTCT)”, the “recombinant UMI read abundance (log10)” value is reported as 0.00578. For “CCTGTTCCATGGACCGGTTTTCCCGGTAATCCGTATTTGTC (site CCTGTTCCTGA)”, the “recombinant UMI read abundance (log10)” value was 0. In the case of “GCTGGAACATGGACCGGTTTTCCCGGTAATCCGTATTTGAC (site GCTGGAACTGT)”, the “recombinant UMI read abundance (log10)” value is reported as 1.62. With “TCCAATTCATGGACCGGTTTTCCCGGTAATCCGTATTTGCC (site TCCAATTCTGT)” the “recombinant UMI read abundance (log10)” value was 0. For “TAAATGCCATGGACCGGTTTTCCCGGTAATCCGTATTTGGA (site TAAATGCCTTC)”, the “recombinant UMI read abundance (log10)” value was 0.2. With “TAGAAATCATGGACCGGTTTTCCCGGTAATCCGTATTTGCG (site TAGCAATCTCG)” the “recombinant UMI read abundance (log10)” value was 1.42. With “GCCACGCCATGGACCGGTTTTCCCGGTAATCCGTATTTGTA (site GCCACGCCTTA)” the “recombinant UMI read abundance (log10)” value was 0.289. In the case of “ATACGCACATGGACCGGTTTTCCCGGTAATCCGTATTTGAA (site ATACGCACTTT)”, the “recombinant UMI read abundance (log10)” value is reported as 1.55. For “GAATGGACATGGACCGGTTTTCCCGGTAATCCGTATTTGCA (site GAATGGACTTG)”, the “recombinant UMI read abundance (log10)” value was 2.46.
